Data on one substance can be found in patent publication US11319374B2, “Inhibitors of prototypic galectin dimerization and uses thereof” (INSTITUT NATIONAL DE LA RECHERCHE SCIENTIFIQUE, priority 2015, dated 2022).

Test [1] relates to Jurkat T cells. Nature of the test: hGal-7-induced apoptosis of Jurkat T cells, Annexin V/PI flow cytometry. It is filed as cell-based. Conditions: 4 h at 37° C., FIGS. 5B and 5C. The method, then: Apoptosis assays with Annexin V/PI staining. Apoptosis was measured by flow cytometry using FITC-labeled Annexin V (Biolegend®, San Diego, Calif., USA) and propidium iodide. Briefly, the corresponding dilutions of recombinant hGal-7 and hGal-7(129-135) peptides were pre-incubated for 1 h at 4° C. in serum-free RPMI 1640 medium. 2.5×10^5 Jurkat cells were then harvested in the same medium and incubated with their corresponding dilutions at 37° C. for 4 h. Cells were washed once in PBS and once in binding buffer (0.01 M HEPES, 0.14 M NaCl, 2.5 mM CaCl2, pH 7.4). Cells were then incubated for 15 min with Annexin V in the dark at room temperature. A total of 400 μL of binding buffer containing 0.25 μg/mL propidium iodide was added to the cells before analysis by flow cytometry.
It was thus tested whether hGal-7(129-135) could modulate the binding of hGal-7 on Jurkat T cells, a cell model that is commonly used to test the pro-apoptotic activity of galectins. For this purpose, recombinant hGal-7 was labeled with fluorescein isothiocyante (FITC) and its binding on the surface of Jurkat T cells was measured by flow cytometry in absence or presence of increasing concentrations of hGal-7(129-135). […] The effect of hGal-7(129-135) was specific, statistically significant (FIG. 4B), and consistent with the increased number of monomers, which bind to surface glycosylated receptors through their CRDs. […]

For test [2], the target named is T1, hGal-7/Bcl-2 heterodimer (Homo sapiens, UniProt P47929).
T1 construct: host or cells: E. coli BL21 (DE3) (hGal-7)
T1 sequence (P47929 2-136 limits assumed, one chain of several): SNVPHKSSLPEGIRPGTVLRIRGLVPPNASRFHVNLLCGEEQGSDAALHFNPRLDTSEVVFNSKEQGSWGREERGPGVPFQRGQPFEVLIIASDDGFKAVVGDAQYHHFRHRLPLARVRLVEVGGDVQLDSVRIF
Nature of the test: hGal-7/Bcl-2 heterodimer disruption, low-SDS Western blotting with anti-Gal-7 antibody. It is filed as biochemical. The following applies: hGal-7 and Bcl-2 each 0.5 μM, especially at the highest dose of 500 μM, FIG. 12C. Here is the method:
FIGS. 12A to 12C show the dose-dependent disruption of the hGal-7/Bcl-2 heterodimer in the presence of the hGal-7(129-135) peptide. FIGS. 12A and 12B: detection of hGal-7/Bcl-2 heterodimers in the presence of the indicated amounts of recombinant Bcl-2 using an anti-gal-7 antibody (FIG. 12A) or an anti-Bcl-2 antibody (FIG. 12B). FIG. 12C: the recombinant hGal-7 and Bcl-2 (each at 0.5 μM) were incubated with increasing concentrations of hGal-7(129-135) in 20 mM potassium phosphate buffer (pH 7.1). The effect of hGal-7(129-135) on the homodimerization and heterodimerization (with Bcl-2) of hGal-7 was assessed by Western blotting in low-SDS conditions with an anti-Gal-7 antibody.
Production of recombinant hGal-7 and hGal-1. Human Gal-7 cDNA was cloned into pET-22b(+) using Ndel and HindIII restriction enzymes. Human pET-Gal-1 vector was generously donated by Dr. S. Sato (McGill University, QC, Canada). The proteins were produced in E. coli BL21 (DE3) cells at 37° C. Isopropyl p-D-1-thiogalactopyranoside (IPTG) (1 mM) was added to the bacterial culture at OD600nm=0.6-0.7 and then incubated for 4 h at 37° C. to allow protein production. […] Purified fractions were analyzed by SDS-PAGE. […]

For “H-Leu-Asp-Ser-Val-Arg-Ile-Phe-NH2 (H-LDSVRIF-NH2; listed as Homo sapiens) [hGal-7(129-135), peptide corresponding to residues 129-135 of hGal-7]”, the “inhibition of hGal-7-induced apoptosis, Annexin V/PI staining” value in test [1] is “confirmed”. Moreover, in test [2], the “amount of hGal-7/Bcl-2 heterodimers” value is recorded as “decreased”.
